Patent US20120136416A1, “Caged Neuropeptides: modulation and measurement of synapse and signaling activity; and methods for drug evaluation, pharmaceuticals preparation and treatment” (PRESIDENT AND FELLOWS OF HARVARD COLLEGE, priority 2010, published 2012)

Tests used:
[1] = system: locus coeruleus (LC) neurons; assay: Whole-cell recordings from locus coeruleus neurons in acute brain slices, local perfusion or UV uncaging; type: cell-based, rat
[2] = target: human kappa opioid receptors (OPRK1) (Homo sapiens, UniProt P41145); type: cell-based
Chain of human kappa opioid receptors (OPRK1) (P41145 whole entry, looked up): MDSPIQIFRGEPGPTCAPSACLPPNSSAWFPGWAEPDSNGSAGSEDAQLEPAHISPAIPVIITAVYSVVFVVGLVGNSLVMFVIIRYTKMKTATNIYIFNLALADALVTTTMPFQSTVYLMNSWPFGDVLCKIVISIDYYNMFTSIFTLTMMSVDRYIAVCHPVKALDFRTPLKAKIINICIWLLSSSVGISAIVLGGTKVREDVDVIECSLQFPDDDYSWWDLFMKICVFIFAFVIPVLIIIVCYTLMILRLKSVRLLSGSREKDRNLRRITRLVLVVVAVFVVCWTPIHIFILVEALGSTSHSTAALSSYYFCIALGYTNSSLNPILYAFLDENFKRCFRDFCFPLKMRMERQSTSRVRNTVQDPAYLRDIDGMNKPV

[3] = system: CA1 region of the hippocampus; assay: Extracellular field potential recordings (population spike) in acute hippocampal slices, UV uncaging; type: cell-based, mice
Protocol: Preliminary electrophysiological evaluation was carried out in transverse hippocampal slices from P15-18 mice and focused on inhibitory neurons, the predominant cells expressing Mu and Delta opioid receptors in the CA1 region. Initial neurophysiological evaluations were carried out in acute hippocampal slices from P24-30 mice. […] Extracellular field potential recordings reveal this as an increase in the population spike (pSpike) amplitude in response to Schaeffer collateral stimulation at 0.1 Hz. […] These experiments confirmed that photolysis in living tissue elicits a physiological response.

Nc1ccncc1 [4-AP]
effect on residual Ba^2+-insensitive outward current [1]: unable to block or occlude

[Ba+2].[Cl-].[Cl-] [Ba^2+, BaCl2]
outward current blocked [1]: 80%

[Cl][Cd][Cl] [Cd^2+, CdCl2]
effect on residual Ba^2+-insensitive outward current [1]: unable to block or occlude

CC(C)C[C@H](NC(=O)[C@H](Cc1ccccc1)NC(=O)CNC(=O)CNC(=O)[C@@H](N)Cc1ccc(O)cc1)C(=O)O [L-Enk, Leu-Enkephalin]
activation of kappa receptors [2]: did not activate

CC1(C)[C@@H](OC(=O)CCC(=O)O)CC[C@]2(C)[C@H]3C(=O)C=C4[C@@H]5C[C@@](C)(C(=O)O)CC[C@]5(C)CC[C@@]4(C)[C@]3(C)CC[C@@H]12 [carbenoxolone]
effect on responses to the uncaging stimuli ([1]; 100 uM, n=10 cells): not significantly attenuated

C=CCN1CC[C@]23c4c5ccc(O)c4O[C@H]2C(=O)CC[C@@]3(O)[C@H]1C5 [naloxone]
effect on light-evoked pSpike increases [3]: blocked | effect on light-evoked outward current ([1]; 2 μM, uncaging of 10 μM CYLE): blocked

ZD7288
effect on residual Ba^2+-insensitive outward current [1]: unable to block or occlude
